Measurements taken from patent publication US4758580A, “Inhibiting growth of tumors with certain substituted phenoxy dimethyl alkanoic acids, esters or salts” (Yamanouchi Pharmaceutical Co., Ltd., priority 1985, dated 1988).
In brackets after ≈: the same amount, converted by molar mass.

How the values were obtained:
[1] = tested on: Ehrlich solid tumor; test: Anti-tumor test against Ehrlich solid tumor; format: in vivo, ddY/SLC mice
Protocol: Ehrlich tumor cells, 2×10^6, on Day 7 after intraperitoneal transplantation to ddY/SLC mice were subcutaneously transplanted in the left abdomen of ddY/SLC mice (5 week age, male), 10 each grouped into one. The active component was intraperitoneally or orally administered in a definite dose 24 hours after the transplantation, according to the schedule shown in Table 1 (A), (B) or (C). An effect of inhibiting growth of tumor was compared, by measuring the long diameter and short diameter of the tumor on 14, 20 and 21 Days after the transplantation, calculating the tumor size (mm^2) and determining a tumor growth inhibition rate of the group administered with the active component to the control group according to the following equation:
Growth inhibition rate (%)=(C-T)/C×100
T: means tumor size (mm^2) in the active component-administered group
C: mean tumor size (mm^2) in the control group

[2] = tested on: Ehrlich ascites tumor; test: Anti-tumor effect against Ehrlich ascites tumor; format: in vivo, ddY/SLC mice; conditions: 25 mg/kg i.p., 1-9 Days
Protocol: (§1) Ehlrich tumor cells, 1×10^6, on Day 7 after intraperitoneal transplantation to ddY/SLC mice were intraperitoneally transplanted to ddY/SLC mice (5 week age, male) of 10 mice each being grouped in one. The active component was intraperitoneally administered in a definite dose 24 hours after the transplantation according to the schedule shown in Table 4. An effect of tumor growth inhibition was evaluated by a percentage of the median survival day of the administered group versus that of the control group, according to the following equation.
(§2) T: median survival day of the administered group
(§3) C: median survival day of the control group

[3] = tested on: MM-46 ascites tumor; test: Anti-tumor test against mice mammary cancer MM-46 ascites tumor; format: in vivo, C3 H/He/CRJ mice
Protocol: as §1, with “MM-46” for “Ehlrich”, “C3 H/He/CRJ” for “ddY/SLC mice were intraperitoneally transplanted to ddY/SLC”, “5.” for “4.”, “time” for “day”
as §2, §3

[4] = tested on: liver cancer (MH-134) cells; test: Inhibition of spontaneous metastasis (to the lymph node) of liver cancer (MH-134) cells in mice; format: in vivo, C3 H/He/SLC mice; conditions: 20th day
Protocol: (a) Inhibition of spontaneous metastasis (to the lymph node) of liver cancer (MH-134) cells in mice
MH-134 tumor cells, 1×10^6, on Day 7 after intraperitoneal transplantation to C3 H/He/SLC mice were transplanted to the right leg. On the 11th day after the transplantation, the right leg portion wherein the cancer cells were transplanted were cut off. The test compounds were administered orally in a definite dose 24 hours after the transplantation. In order to confirm metastasis-inhibiting effect, on 20th day of the transplantation the mice were anatomised to observe the metastasis to the lymph node in the inguinal portion. [formula] Further, the weight of the lymph node metastasis tumor in the inguinal portion of anatomised mice was measured. [formula]

[5] = tested on: L-1210; test: In vitro cytotoxicity against mouse tumor cells, L-1210; format: cell-based; conditions: L1210, 72 h
Protocol: (§4) A suspension of cells in a culture medium was transferred into wells in a microplate in an amount of 1×10^5 cells/wall. Test sample diluted with a culture medium was added to the suspension in each well, and the mixture was incubated on the medium at 37° C. for 3 days in atmosphere of air containing 5% carbon dioxide. Thereafter, the incubated cells were recovered from the microplate and the number of live cells was counted by the dye exclusion test using a 0.5% solution of trypan blue and by using a hemocytomer.

[6] = tested on: Ehrlich (carcinoma); test: In vitro cytotoxicity against mouse tumor cells, Ehrlich; format: cell-based; conditions: Ehrlich, 72 h
Protocol: as §4

[7] = tested on: MH 134 (liver cancer); test: In vitro cytotoxicity against mouse tumor cells, MH 134; format: cell-based; conditions: MH 134, 72 h
Protocol: as §4

[8] = tested on: Meth A (methylcholanthrene-induced cancer); test: In vitro cytotoxicity against mouse tumor cells, Meth A; format: cell-based; conditions: Meth-A, 72 h
Protocol: as §4

[9] = tested on: KB (nasal cavity & pharynx cancer); test: In vitro cytotoxicity against human tumor cells, KB; format: cell-based; conditions: 72 h
Protocol: (§5) A suspension of cells in a culture medium was transferred into wells in a microplate in an amount of 5×10^4 cells/well. Test sample diluted with a culture medium was added to the suspension in each well, and the mixture was incubated at 37° C. for 3 days in an atmosphere of air containing 5% carbon dioxide. After skimming, sticking cells were dyed which crystalviolet for 10 minutes. After washing with water, 1% sodium lauryl sulfate solution was added to each well, and the absrobancy (optical density) at […] was measured. "% inhibition" was calculated from the following equation. [formula]

[10] = tested on: Bowes (melanoma); test: In vitro cytotoxicity against human tumor cells, Bowes; format: cell-based; conditions: 72 h
Protocol: as §5

[11] = tested on: ACHN (kidney cancer); test: In vitro cytotoxicity against human tumor cells, ACHN; format: cell-based; conditions: 72 h
Protocol: as §5

[12] = Day 14, 2.5 mg/kg i.p., Days 1, 2, 3, 5 & 6
[13] = Day 14, 12.5 mg/kg i.p., Days 1, 2, 3, 4, 6, 7, 8, 9
[14] = Day 14, 25 mg/kg i.p., Days 1, 2, 3, 4 & 7
[15] = Day 14, 25 mg/kg i.p., Days 1, 2, 3, 4, 6, 7, 8, 9
[16] = Day 21, 2.5 mg/kg i.p., Days 1, 2, 3, 5 & 6
[17] = Day 21, 12.5 mg/kg i.p., Days 1, 2, 3, 4, 6, 7, 8, 9
[18] = Day 21, 25 mg/kg i.p., Days 1, 2, 3, 4 & 7
[19] = Day 21, 25 mg/kg i.p., Days 1, 2, 3, 4, 6, 7, 8, 9
[20] = 6.25 mg/kg i.p., 1, 2, 3, 4 and 6 Days
[21] = 12.5 mg/kg i.p., 1, 2, 3, 4 and 6 Days
[22] = 25 mg/kg i.p., 1, 2, 3, 4 and 6 Days
[23] = 50 mg/kg oral, 1, 3, 5, 7, 9, 11, 13 and 15 days
[24] = 100 mg/kg oral, 1, 3, 5, 7, 9, 11, 13 and 15 days

O=c1[nH]cc(F)c(=O)[nH]1 [5-Fluorouracil, reference compound]
Growth Inhibition Rate [1, 12]: 42.9% | Size of Tumor [1, 12]: 133.7 ± 61.1 mm^2 | Growth Inhibition Rate [1, 13]: 44.1% | Size of Tumor [1, 13]: 142.6 ± 36.9 mm^2 | Growth Inhibition Rate [1, 14]: 40.0% | Size of Tumor [1, 14]: 86.7 ± 35.1 mm^2 | Growth Inhibition Rate [1, 15]: 54.4% | Size of Tumor [1, 15]: 116.3 ± 44.0 mm^2 | Growth Inhibition Rate [1, 16]: 42.4% | Size of Tumor [1, 16]: 306.8 ± 166.8 mm^2 | Growth Inhibition Rate [1, 17]: 34.2% | Size of Tumor [1, 17]: 280.6 ± 68.9 mm^2 | Growth Inhibition Rate [1, 18]: 57.5% | Size of Tumor [1, 18]: 217.8 ± 126.2 mm^2 | Growth Inhibition Rate [1, 19]: 40.8% | Size of Tumor [1, 19]: 252.3 ± 100.3 mm^2 | Median Survival Day [2]: 24.5 days | No. of 40-day Survivors [2]: 0/8 | T/C (median survival) [2]: 163.3% | Median Survival Day [3, 20]: 16.0 days | Survivors (90 days) [3, 20]: 0/10 | T/C (median survival) [3, 20]: 213.3% | Median Survival Day [3, 21]: 17.0 days | Survivors (90 days) [3, 21]: 0/10 | T/C (median survival) [3, 21]: 226.7% | Median Survival Day [3, 22]: 20.0 days | Survivors (90 days) [3, 22]: 0/10 | T/C (median survival) [3, 22]: 266.7% | Growth inhibition of the metastasis tumor [4, 23]: 48.7% | Metastasis-inhibition rate [4, 23]: 17.7% | Growth inhibition of the metastasis tumor [4, 24]: 74.2% | Metastasis-inhibition rate [4, 24]: 41.2% | IC50 [5]: 0.06 µg/mL (≈ 0.461 µM) | IC50 [6]: 0.05 µg/mL (≈ 0.384 µM) | IC50 [7]: 0.009 µg/mL (≈ 0.0692 µM) | IC50 [8]: 0.1 µg/mL (≈ 0.769 µM) | IC50 [9]: 1.75 µg/mL (≈ 13.5 µM) | IC50 [10]: 0.61 µg/mL (≈ 4.69 µM) | IC50 [11]: 0.1 µg/mL (≈ 0.769 µM)
